Marks after values point to notes of the source that are not given here.
How the values were obtained:
enzyme of SEQ ID NO:1 [1] = assay: Screening of carbonyl-containing compounds with ammonia as amine source (specific activity, absorbance at 340 nm); assay type: biochemical, Mycobacterium smegmatis; details: for Specific activity, SEQ ID NO: 1: 10 mM of carbonyl-containing compound, ammonia as amine source; for activity of enzyme of SEQ ID NO:1 towards the substrate (in words): reductive amination
Protocol: (§1) All the reactions were conducted at 25° C. in spectrophotometric cell (10 mm light path). To a mixture of ammonium formate buffer (2 M NH4HCO2/NH4OH, pH 9.5), NADH or NADPH (0.2 mM) and an appropriate amount of purified enzyme was added.

enzyme of SEQ ID NO:2 [2] = assay: as above; assay type: biochemical, Cystobacter fuscus DSM 2262; details: for Specific activity, SEQ ID NO: 2: 10 mM of carbonyl-containing compound, ammonia as amine source; for activity of enzyme of SEQ ID NO:2 towards the substrate (in words): reductive amination
Protocol: as §1

enzyme of SEQ ID NO:3 [3] = assay: as above; assay type: biochemical, Microbacterium sp. MA1; details: for Specific activity, SEQ ID NO: 3: 10 mM of carbonyl-containing compound, ammonia as amine source; for activity of enzyme of SEQ ID NO:3 towards the substrate (in words): reductive amination
Protocol: as §1

PheDH-AmDH K77S/N276L = PheDH-AmDH K77S/N276L (Pseudobacillus badius, UniProt Q59224, K78S/N277L); details: prior-art engineered enzyme; cited from earlier work
enzyme of SEQ ID NO:4 [4] = assay: Screening of carbonyl-containing compounds with ammonia as amine source (specific activity, absorbance at 340 nm); assay type: biochemical, Aminomonas paucivorans DSM 12260; parameters: key to Detection of the expected compound, SEQ ID NO: 4: d: detected activity; nd: not detected activity; details: for activity of enzyme of SEQ ID NO:4 towards the substrate (in words): reductive amination
Protocol: (§2) All the reactions were conducted at 25° C. in spectrophotometric cell (10 mm light path). To a mixture of ammonium formate buffer (2 M NH4HCO2/NH4OH, pH 9.5), NADH or NADPH (0.2 mM) and an appropriate amount of purified enzyme was added. Carbonyl-containing compound (5 or 10 mM) is then added to initiate the reaction (reaction final volume 100 μL). The initial slope measured at 340 nm determined the specific activity of the enzyme according to Beer-Lambert's law and the molar absorptivity of β-NADH (ϵ=6298 M^−1 cm^−1).

enzyme of SEQ ID NO:1 [5] = assay: Screening of carbonyl-containing compounds with methylamine as amine source; assay type: biochemical, Mycobacterium smegmatis; details: preliminary; for Specific activity, SEQ ID NO: 1: methylamine (500 mM) as amine source, NADH/NADPH (0.1 mM each), carbonyl-containing compound 5 mM; for activity of enzyme of SEQ ID NO:1 on the substrate with methylamine (in words): methylamine as amine source
Protocol: as §2, with “of TRIS.HCl” for “of ammonium formate”, “buffer (50 mM,” for “buffer (2 M NH4HCO2/NH4OH,”, “NADH and” for “NADH or”, “NADPH (0.1 mM each), methylamine (500” for “NADPH (0.2”, “(5” for “(5 or 10”

enzyme of SEQ ID NO:2 [6] = assay: as above; assay type: biochemical, Cystobacter fuscus DSM 2262; details: preliminary
Protocol: as §2, with “of TRIS.HCl” for “of ammonium formate”, “buffer (50 mM,” for “buffer (2 M NH4HCO2/NH4OH,”, “NADH and” for “NADH or”, “NADPH (0.1 mM each), methylamine (500” for “NADPH (0.2”, “(5” for “(5 or 10”

enzyme of SEQ ID NO:3 [7] = assay: as above; assay type: biochemical, Microbacterium sp. MA1; details: preliminary; for Specific activity, SEQ ID NO: 3: methylamine (500 mM) as amine source, NADH/NADPH (0.1 mM each), carbonyl-containing compound 5 mM; for activity of enzyme of SEQ ID NO:3 on the substrate with methylamine (in words): methylamine as amine source
Protocol: as §2, with “of TRIS.HCl” for “of ammonium formate”, “buffer (50 mM,” for “buffer (2 M NH4HCO2/NH4OH,”, “NADH and” for “NADH or”, “NADPH (0.1 mM each), methylamine (500” for “NADPH (0.2”, “(5” for “(5 or 10”

enzyme of SEQ ID NO:4 [8] = assay: as above; assay type: biochemical, Aminomonas paucivorans DSM 12260; details: preliminary
Protocol: as §2, with “of TRIS.HCl” for “of ammonium formate”, “buffer (50 mM,” for “buffer (2 M NH4HCO2/NH4OH,”, “NADH and” for “NADH or”, “NADPH (0.1 mM each), methylamine (500” for “NADPH (0.2”, “(5” for “(5 or 10”

enzyme of SEQ ID NO:5 = assay: as above; assay type: biochemical, Mycobacterium vaccae ATCC 25954; details: preliminary; for Specific activity, SEQ ID NO: 5: methylamine (500 mM) as amine source, NADH/NADPH (0.1 mM each), carbonyl-containing compound 5 mM; for activity of enzyme of SEQ ID NO:5 on the substrate with methylamine (in words): methylamine as amine source
Protocol: as §2, with “of TRIS.HCl” for “of ammonium formate”, “buffer (50 mM,” for “buffer (2 M NH4HCO2/NH4OH,”, “NADH and” for “NADH or”, “NADPH (0.1 mM each), methylamine (500” for “NADPH (0.2”, “(5” for “(5 or 10”

Bbad-AmDH = details: as described in Pushpanath et al.; cited from earlier work
Cal-AmDH = details: as described in Pushpanath et al.; cited from earlier work
[9] = 0.2 mM NADPH (best of NADH/NADPH)
[10] = 0.2 mM NADH (best of NADH/NADPH)
[11] = 0.2 mM NADPH (best of NADH/NADPH), listed as drawing 134
[12] = 0.2 mM NADH (best of NADH/NADPH), listed as drawing 150
[13] = methylamine (500 mM) as amine source, NADH/NADPH (0.1 mM each), carbonyl-containing compound 5 mM
[14] = 0.2 mM NADH (best of NADH/NADPH), listed as drawing 130

Sequence of PheDH-AmDH K77S/N276L (Q59224 whole entry K78S/N277L): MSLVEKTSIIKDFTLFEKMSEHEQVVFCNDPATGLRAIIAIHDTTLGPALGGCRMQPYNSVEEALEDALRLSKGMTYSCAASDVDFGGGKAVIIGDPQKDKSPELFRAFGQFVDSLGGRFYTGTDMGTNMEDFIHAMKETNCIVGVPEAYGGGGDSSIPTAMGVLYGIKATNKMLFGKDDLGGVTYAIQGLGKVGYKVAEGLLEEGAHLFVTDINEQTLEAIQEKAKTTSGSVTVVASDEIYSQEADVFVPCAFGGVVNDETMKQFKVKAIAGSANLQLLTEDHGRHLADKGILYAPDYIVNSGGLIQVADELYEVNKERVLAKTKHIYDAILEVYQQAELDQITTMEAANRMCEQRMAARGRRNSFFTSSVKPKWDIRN

## CC1CCCCC1=O (racemic) [2-methylcyclohexanone]
Enzyme of SEQ ID NO:1 [1]; [9]
  Specific activity, SEQ ID NO: 1: 175.3 mU.mg^-1
Enzyme of SEQ ID NO:1 [1]; 0.2 mM NADPH (best of NADH/NADPH), listed as drawing 132
  Specific activity, SEQ ID NO: 1: 175.3^b mU.mg^-1
Enzyme of SEQ ID NO:2 [2]; [9]
  Specific activity, SEQ ID NO: 2: 14.8^b mU.mg^-1
Enzyme of SEQ ID NO:3 [3]; [10]
  Specific activity, SEQ ID NO: 3: 337.0 mU.mg^-1
Enzyme of SEQ ID NO:3 [3]; 0.2 mM NADH (best of NADH/NADPH), listed as drawing 132
  Specific activity, SEQ ID NO: 3: 337.0a mU.mg^-1
PheDH-AmDH K77S/N276L
  specific activity of PheDH-AmDH K77S/N276L: 19.3 mU·mg^−1

## CC1CCCC(=O)C1 (racemic) [3-methylcyclohexanone]
Enzyme of SEQ ID NO:1 [1]; [9]
  Specific activity, SEQ ID NO: 1: 160.9 mU.mg^-1
Enzyme of SEQ ID NO:1 [1]; [11]
  Specific activity, SEQ ID NO: 1: 160.9^b mU.mg^-1
Enzyme of SEQ ID NO:2 [2]; [9]
  Specific activity, SEQ ID NO: 2: 37.0^b mU.mg^-1
Enzyme of SEQ ID NO:3 [3]; [9]
  Specific activity, SEQ ID NO: 3: 206.5 mU.mg^-1
Enzyme of SEQ ID NO:3 [3]; [11]
  Specific activity, SEQ ID NO: 3: 206.5^b mU.mg^-1
PheDH-AmDH K77S/N276L
  specific activity of PheDH-AmDH K77S/N276L: 41.1 mU·mg^−1

## CC(=O)CC(N)C(=O)O (stereo not shown) [2-amino-4-oxopentanoic acid]
Enzyme of SEQ ID NO:1 [1]
  activity of enzyme of SEQ ID NO:1 towards the substrate (in words): inactive
Enzyme of SEQ ID NO:2 [2]
  activity of enzyme of SEQ ID NO:2 towards the substrate (in words): inactive
Enzyme of SEQ ID NO:3 [3]
  activity of enzyme of SEQ ID NO:3 towards the substrate (in words): inactive
Enzyme of SEQ ID NO:4 [4]
  activity of enzyme of SEQ ID NO:4 towards the substrate (in words): inactive

## CC(C)C=O [2-methylpropanal]
Enzyme of SEQ ID NO:1 [1]; [10]
  Specific activity, SEQ ID NO: 1: 556.5 mU.mg^-1
Enzyme of SEQ ID NO:1 [1]; [12]
  Specific activity, SEQ ID NO: 1: 556.5^a mU.mg^-1
Enzyme of SEQ ID NO:2 [2]; [10]
  Specific activity, SEQ ID NO: 2: 119.2^a mU.mg^-1
Enzyme of SEQ ID NO:3 [3]; [10]
  Specific activity, SEQ ID NO: 3: 541.0 mU.mg^-1
Enzyme of SEQ ID NO:3 [3]; [12]
  Specific activity, SEQ ID NO: 3: 541.0^a mU.mg^-1
Enzyme of SEQ ID NO:1 [5]
  Specific activity, SEQ ID NO: 1: 144.5 mU.mg-^1
  activity of enzyme of SEQ ID NO:1 on the substrate with methylamine (in words): active
Enzyme of SEQ ID NO:2 [6]; [13]
  Specific activity, SEQ ID NO: 2: 150.2 mU.mg-^1
Enzyme of SEQ ID NO:2 [6]; methylamine as amine source
  activity of enzyme of SEQ ID NO:2 on the substrate with methylamine (in words): active
Enzyme of SEQ ID NO:3 [7]
  Specific activity, SEQ ID NO: 3: 851.3 mU.mg-^1
  activity of enzyme of SEQ ID NO:3 on the substrate with methylamine (in words): active
Enzyme of SEQ ID NO:4 [8]; [13]
  Specific activity, SEQ ID NO: 4: 30.3 mU.mg-^1
Enzyme of SEQ ID NO:4 [8]; methylamine as amine source
  activity of enzyme of SEQ ID NO:4 on the substrate with methylamine (in words): active
Enzyme of SEQ ID NO:5
  Specific activity, SEQ ID NO: 5: 262.6 mU.mg-^1
  activity of enzyme of SEQ ID NO:5 on the substrate with methylamine (in words): active

## CC(=O)CCC(=O)O [4-oxopentanoic acid]
Enzyme of SEQ ID NO:1 [1]
  activity of enzyme of SEQ ID NO:1 towards the substrate (in words): inactive
Enzyme of SEQ ID NO:2 [2]
  activity of enzyme of SEQ ID NO:2 towards the substrate (in words): inactive
Enzyme of SEQ ID NO:3 [3]
  activity of enzyme of SEQ ID NO:3 towards the substrate (in words): inactive
Enzyme of SEQ ID NO:4 [4]
  activity of enzyme of SEQ ID NO:4 towards the substrate (in words): inactive

## O=C1CCCCC1 [cyclohexanone]
Enzyme of SEQ ID NO:1 [1]; [10]
  Specific activity, SEQ ID NO: 1: 196.2 mU.mg^-1
Enzyme of SEQ ID NO:1 [1]; [14]
  Specific activity, SEQ ID NO: 1: 196.2^a mU.mg^-1
Enzyme of SEQ ID NO:2 [2]; [10]
  Specific activity, SEQ ID NO: 2: 135.9 mU.mg^-1
Enzyme of SEQ ID NO:2 [2]; [14]
  Specific activity, SEQ ID NO: 2: 135.9^a mU.mg^-1
Enzyme of SEQ ID NO:3 [3]; [10]
  Specific activity, SEQ ID NO: 3: 614.5 mU.mg^-1
Enzyme of SEQ ID NO:3 [3]; [14]
  Specific activity, SEQ ID NO: 3: 614.5^a mU.mg^-1
Enzyme of SEQ ID NO:1 [5]
  Specific activity, SEQ ID NO: 1: 10.1 mU.mg-^1
  activity of enzyme of SEQ ID NO:1 on the substrate with methylamine (in words): active
Enzyme of SEQ ID NO:3 [7]
  Specific activity, SEQ ID NO: 3: 90.4 mU.mg-^1
  activity of enzyme of SEQ ID NO:3 on the substrate with methylamine (in words): active
Enzyme of SEQ ID NO:5
  Specific activity, SEQ ID NO: 5: 12.6 mU.mg-^1
  activity of enzyme of SEQ ID NO:5 on the substrate with methylamine (in words): active
Bbad-AmDH
  specific activity of Bbad-AmDH: 11.3 mU·mg^−1
Cal-AmDH
  specific activity of Cal-AmDH: 12.7 mU·mg^−1
PheDH-AmDH K77S/N276L
  specific activity of PheDH-AmDH K77S/N276L: 27 mU·mg^−1

## O=C1CCCCC1 [drawing 120]
Enzyme of SEQ ID NO:4 [4]; 0.2 mM NADH (best of NADH/NADPH), 10 mM of carbonyl-containing compound, ammonia as amine source
  Specific activity, SEQ ID NO: 4: 9.82^a mU.mg^-1
Enzyme of SEQ ID NO:4 [4]; ammonia as amine source, pH 9.5, 25° C.
  Detection of the expected compound, SEQ ID NO: 4: d

Reference: US11118200B2, “Method for preparing amines from aldehydes and ketones by biocatalysis” (COMMISSARIAT A L'ENERGIE ATOMIQUE ET AUX ENERGIES …, priority 2017, dated 2021)
